pIC50: −log10 of the molar value.
Experiments:
DOHH2 cells = assay: Cell proliferation assay (MTS), DOHH2 cells, 120 h; assay type: cell-based; details: Homo sapiens, DOHH-2, 120 h
In short: (§1)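 Treatment lasts 72 h for RS4;11 and 120 h for DOHH2 cells seeded at 5000 per well in serum-containing RPMI-1640. A 2 h MTS step, halted with 10% SDS, precedes dual-wavelength absorbance reading and IC50 fitting.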

RS4;11 cells = assay: Cell proliferation assay (MTS), RS4;11 cells, 72 h; assay type: cell-based; details: Homo sapiens, RS4-11, 72 h
In short: as §1

| Compound | pIC50 (DOHH2 cells) | pIC50 (RS4;11 cells) |
| --- | --- | --- |
| CC1(C)CCC(CN2CCN(c3ccc(C(=O)NS(=O)(=O)c4cc5c(c([N+](=O)[O-])c4)NC(C4CCOCC4)CO5)c(Oc4cnc5[nH]ccc5c4)c3)CC2)=C(c2ccc(Cl)cc2)C1 (stereo not shown) [Example 2-185, 2-((1H-pyrrolo[2,3-b]pyridin-5-yl)oxy)-4-(4-((4′-chloro-5,5-dimethyl-3,4,5,6-tetra-hydro[1,1′-biphenyl]-2-yl)methyl)piperazin-1-yl)-N-((5-nitro-3-(tetrahydro-2H-pyran-4-yl)-3,4-dihydro-2H-benzo[b][1,4]oxazin-7-yl)sulfonyl)benzamide] | 8.52 | 9.00 |
| CC1(C)CCC(CN2CCN(c3ccc(C(=O)NS(=O)(=O)c4cc5c(c([N+](=O)[O-])c4)N[C@H](C4CCOCC4)CO5)c(Oc4cnc5[nH]ccc5c4)c3)CC2)=C(c2ccc(Cl)cc2)C1 [Example 2-186, (R)-2-((1H-pyrrolo[2,3-b]pyridin-5-yl)oxy)-4-(4-((4′-chloro-5,5-dimethyl-3,4,5,6-tetra-hydro-[1,1′-biphenyl]-2-yl)methyl)piperazin-1-yl)-N-((5-nitro-3-(tetrahydro-2H-pyran-4-yl)-3,4-dihydro-2H-benzo[b][1,4]oxazin-7-yl)sulfonyl)benzamide] | 7.89 | 9.00 |
| CC1(C)CCC(CN2CCN(c3ccc(C(=O)NS(=O)(=O)c4cc5c(c([N+](=O)[O-])c4)N[C@@H](C4CCOCC4)CO5)c(Oc4cnc5[nH]ccc5c4)c3)CC2)=C(c2ccc(Cl)cc2)C1 [Example 2-187, (S)-2-((1H-pyrrolo[2,3-b]pyridin-5-yl)oxy)-4-(4-((4′-chloro-5,5-dimethyl-3,4,5,6-tetra-hydro-[1,1′-biphenyl]-2-yl)methyl)piperazin-1-yl)-N-((5-nitro-3-(tetrahydro-2H-pyran-4-yl)-3,4-dihydro-2H-benzo[b][1,4]oxazin-7-yl)sulfonyl)benzamide] | 7.85 | 8.70 |
| CC1(C)CCC(CN2CCN(c3ccc(C(=O)NS(=O)(=O)c4cc5c(c([N+](=O)[O-])c4)NC(C4CCC(O)CC4)CO5)c(Oc4cnc5[nH]ccc5c4)c3)CC2)=C(c2ccc(Cl)cc2)C1 (stereo not shown) [Example 2-188, 2-((1H-pyrrolo[2,3-b]pyridin-5-yl)oxy)-4-(4-((4′-chloro-5,5-dimethyl-3,4,5,6-tetrahydro-[1,1′-biphenyl]-2-yl)methyl)piperazin-1-yl)-N-((3-(4-hydroxycyclohexyl)-5-nitro-3,4-dihydro-2H-benzo[b][1,4]oxazin-7-yl)sulfonyl)benzamide] | 7.72 | 9.00 |
| CC1(C)CCC(CN2CCN(c3ccc(C(=O)NS(=O)(=O)c4cc5c(c([N+](=O)[O-])c4)N[C@@H](Cc4ccccc4F)CO5)c(Oc4cnc5[nH]ccc5c4)c3)CC2)=C(c2ccc(Cl)cc2)C1 [Example 2-189, (S)-2-((1H-pyrrolo[2,3-b]pyridin-5-yl)oxy)-4-(4-((4′-chloro-5,5-dimethyl-3,4,5,6-tetra-hydro-[1,1′-biphenyl]-2-yl)methyl)piperazin-1-yl)-N-((3-(2-fluorobenzyl)-5-nitro-3,4-dihydro-2H-benzo[b][1,4]oxazin-7-yl)sulfo-nyl)benzamide] | 6.83 | 7.11 |
| CC1(C)CCC(CN2CCN(c3ccc(C(=O)NS(=O)(=O)c4cc5c(c([N+](=O)[O-])c4)N[C@@H](Cc4ccc(F)cc4)CO5)c(Oc4cnc5[nH]ccc5c4)c3)CC2)=C(c2ccc(Cl)cc2)C1 [Example 2-190, (S)-2-((1H-pyrrolo[2,3-b]pyridin-5-yl)oxy)-4-(4-((4′-chloro-5,5-dimethyl-3,4,5,6-tetra-hydro-[1,1′-biphenyl]-2-yl)methyl)piperazin-1-yl)-N-((3-(4-fluorobenzyl)-5-nitro-3,4-dihydro-2H-benzo[b][1,4]oxazin-7-yl)sulfo-nyl)benzamide] | 7.60 | 8.10 |
| CC1(C)CCC(CN2CCN(c3ccc(C(=O)NS(=O)(=O)c4cc5c(c([N+](=O)[O-])c4)N[C@@H](Cc4ccc(S(C)(=O)=O)cn4)CO5)c(Oc4cnc5[nH]ccc5c4)c3)CC2)=C(c2ccc(Cl)cc2)C1 [Example 2-192, (S)-2-((1H-pyrrolo[2,3-b]pyridin-5-yl)oxy)-4-(4-((4′-chloro-5,5-dimethyl-3,4,5,6-tetra-hydro-[1,1′-biphenyl]-2-yl)methyl)piperazin-1-yl)-N-((3-((5-(methylsulfonyl)pyridin-2-yl)methyl)-5-nitro-3,4-dihydro-2H-benzo [b][1,4]oxazin-7-yl)sulfonyl)benzamide] | 6.84 | 8.30 |
| CN1CCC(C[C@H]2COc3cc(S(=O)(=O)NC(=O)c4ccc(N5CCN(CC6=C(c7ccc(Cl)cc7)CC(C)(C)CC6)CC5)cc4Oc4cnc5[nH]ccc5c4)cc([N+](=O)[O-])c3N2)CC1 [Example 2-193, (S)-2-((1H-pyrrolo[2,3-b]pyridin-5-yl)oxy)-4-(4-((4′-chloro-5,5-dimethyl-3,4,5,6-tetra-hydro-[1,1′-biphenyl]-2-yl)methyl)piperazin-1-yl)-N-((3-((1-methylpiperidin-4-yl)meth-yl)-5-nitro-3,4-dihydro-2H-benzo[b][1,4]oxazin-7-yl)sulfonyl)benzamide] | 7.55 | 9.00 |
| CC(=O)N1CCC(C[C@H]2COc3cc(S(=O)(=O)NC(=O)c4ccc(N5CCN(CC6=C(c7ccc(Cl)cc7)CC(C)(C)CC6)CC5)cc4Oc4cnc5[nH]ccc5c4)cc([N+](=O)[O-])c3N2)CC1 [Example 2-194, (S)-2-((1H-pyrrolo[2,3-b]pyridin-5-yl)oxy)-N-((3-((1-acetylpiperidin-4-yl)methyl)-5-nitro-3,4-dihydro-2H-benzo[b][1,4]oxazin-7-yl)sulfonyl)-4-(4-((4′-chloro-5,5-dimethyl-3,4,5,6-tetrahydro-[1,1′-biphenyl]-2-yl)meth-yl)piperazin-1-yl)benzamide] | 7.13 | 8.30 |
| COC(=O)N1CCC(C[C@H]2COc3cc(S(=O)(=O)NC(=O)c4ccc(N5CCN(CC6=C(c7ccc(Cl)cc7)CC(C)(C)CC6)CC5)cc4Oc4cnc5[nH]ccc5c4)cc([N+](=O)[O-])c3N2)CC1 [Example 2-195, methyl (S)-4-((7-(N-(2-((1H-pyrrolo[2,3-b]pyridin-5-yl)oxy)-4-(4-((4′-chloro-5,5-dimethyl-3,4,5,6-tetrahydro-[1,1′-biphenyl]-2-yl)methyl)piperazin-1-yl)benzoyl)sulfamoyl)-5-nitro-3,4-dihydro-2H-benzo[b][1,4]oxazin-3-yl)methyl)piperidine-1-carboxylate] | 6.86 | 8.40 |
| CC1(C)CCC(CN2CCN(c3ccc(C(=O)NS(=O)(=O)c4cc5c(c([N+](=O)[O-])c4)N[C@@H](CC4CCN(S(C)(=O)=O)CC4)CO5)c(Oc4cnc5[nH]ccc5c4)c3)CC2)=C(c2ccc(Cl)cc2)C1 [Example 2-196, (S)-2-((1H-pyrrolo[2,3-b]pyridin-5-yl)oxy)-4-(4-((4′-chloro-5,5-dimethyl-3,4,5,6-tetra-hydro-[1,1′-biphenyl]-2-yl)methyl)piperazin-1-yl)-N-((3-((1-(methysulfonyl)piperidin-4-yl)methyl)-5-nitro-3,4-dihydro-2H-benzo[b][1,4]oxazin-7-yl)sulfonyl)benzamide] | 7.03 | 8.22 |

Source: patent US11091478B2 (Fochon Pharmaceuticals, Ltd., priority 2017, dated 2021)
